Literature values as cited in patent publication US5179079A, “Nasal formulation and intranasal administration therewith” (Novo Nordisk A/S, priority 1986, dated 1993).

Settings: compared with intravenous administration

Structure (SMILES) | blood levels after absorption from the nasal cavity
CC(=O)[C@H]1CC[C@H]2[C@@H]3CCC4=CC(=O)CC[C@]4(C)[C@H]3CC[C@]12C [progesterone] | blood levels almost equal to intraveneous administration
CC(C)NCC(O)COc1cccc2ccccc12 (centres unmarked) [propranolol] | blood levels almost equal to intraveneous administration
